Laboratory results reported in patent publication EP0414533A1, “Use of iodopropargyl esters of alpha-amino acid derivatives as antimicrobial agents” (ROHM AND HAAS COMPANY, priority 1989, dated 1991).
Where a name gives a salt, the structure may show the parent alone. Read-outs that look alike come from different tables or passages of the source.

Legend:
Escherichia coli (ECOL) = assay: Minimum inhibitory concentration (MIC), broth two-fold serial dilution test; settings: Escherichia coli, read-out: MIC (G-) ECOL, M9G (minimal salts media with glucose); Table IIIc, iodopropargyl esters of peptides
Pythium ultimum (PYU) = assay: In-vitro plant fungicide test; assay type: cell-based; settings: Globisporangium ultimum
Piricularia oryzae (PIR) = assay: microbe, parasite or virus in culture; assay type: cell-based
MON = assay: In-vitro plant fungicide test; assay type: cell-based; settings: Table IVb, read-out: % Control at (ppm) indicated MON
Aspergillus niger (ANIG) = assay: Minimum inhibitory concentration (MIC), broth two-fold serial dilution test; assay type: cell-based; settings: Aspergillus niger, read-out: MIC (F) ANIG, M9G (minimal salts media with glucose); Table IIIc, iodopropargyl esters of peptides
[1] = tested on: Xanthomonas campestris (XAN); assay: In-vitro plant fungicide test; assay type: cell-based; parameters: inhibition of growth: concentration or dose not given beside the values; settings: Xanthomonas campestris
Septoria nodorum (SEP) = assay: In-vitro plant fungicide test; assay type: cell-based; settings: Parastagonospora nodorum
[2] = tested on: Phytophthora capsici (PHY); assay: In-vitro plant fungicide test; assay type: cell-based; settings: Phytophthora capsici
ALT = assay: In-vitro plant fungicide test; assay type: cell-based; parameters: inhibition of growth: concentration or dose not given beside the values; settings: Table IVb, read-out: % Control at (ppm) indicated ALT
UST = assay: In-vitro plant fungicide test; assay type: cell-based; parameters: inhibition of growth: concentration or dose not given beside the values; settings: Table IVb, read-out: % Control at (ppm) indicated UST
CER = assay: In-vitro plant fungicide test; assay type: cell-based; settings: Table IVb, read-out: % Control at (ppm) indicated CER
[3] = tested on: Staphylococcus aureus (SAUR); assay: Minimum inhibitory concentration (MIC), broth two-fold serial dilution test; settings: Staphylococcus aureus, read-out: MIC (G+) SAUR, M9G (minimal salts media with glucose); Table IIIc, iodopropargyl esters of peptides
Text: (§1) When the test is ready to be done, each vessel in the dilution series, except the first vessel, contains an equal volume of compound free broth. The first vessel contains twice the volume of broth with the starting concentration of test compound. One half of the broth from the first vessel is transferred to the second vessel. After being mixed, one half the resulting volume is removed from the second vessel and transferred to the third vessel. The entire cycle is repeated sufficiently to give a series of concentrations amounting to 500, 250, 125, 63, 31, 16, 8, and 4 ppm (or 100, 50, 25, 12.5, 6.2, 3.1, 1.6, and 0.8), respectively.
(§2) Each vessel is then inoculated with a cell suspension of the appropriate test organism. Bacteria are grown in broth, fungi on agar slants for a time and at a temperature appropriate to the species being tested, and algae are a mixture of green algae and blue-green bacteria grown in a nutrient media. At the end of the growth period, in the case of bacteria, the broth is vortexed to disperse the cells.
(§3) The vessels are then incubated at the appropriate temperature. After the incubation, the vessels are examined for growth/no growth.

[4] = tested on: Pseudomonas aerugenosa (PSAE); assay: as above; settings: Pseudomonas, read-out: MIC (G-) PSAE, M9G (minimal salts media with glucose); Table IIIc, iodopropargyl esters of peptides
Text: as §1, §2, §3

Botrytis cinerea (BOC) = assay: In-vitro plant fungicide test; assay type: cell-based; settings: Botrytis cinerea
[5] = tested on: Pseudomonas fluorescens (PSFL); assay: Minimum inhibitory concentration (MIC), broth two-fold serial dilution test; settings: Pseudomonas fluorescens, read-out: MIC (G-) PSFL, M9G (minimal salts media with glucose); Table IIIc, iodopropargyl esters of peptides
Rhizoctonia solani (RHI) = assay: In-vitro plant fungicide test; assay type: cell-based; settings: Rhizoctonia solani
[6] = Table IVb, read-out: % Control at (ppm) indicated XAN

In the case of `C[C@H](N)C(=O)N[C@@H](COCc1ccccc1)C(=O)OCC#CI` [Compound 19, L-alanyl-O-benzyl-L-serine iodopropargyl ester trifluoroacetate], the MIC (Escherichia coli (ECOL)) is reported as 100 µg/mL, the inhibition of growth at 1.5 ppm (Pythium ultimum (PYU); 1.5 ppm, Table IVb, read-out: % Control at (ppm) indicated PYU) is reported as 0% and the inhibition of growth at 6 ppm (Pythium ultimum (PYU); 6 ppm, Table IVb, read-out: % Control at (ppm) indicated PYU) is reported as 0%. The inhibition of growth at 25 ppm (Pythium ultimum (PYU); Table IVa, read-out: % Control at 25 ppm PYU) was 100%, the inhibition of growth at 25 ppm (Pythium ultimum (PYU); Table IVb, read-out: % Control at (ppm) indicated PYU) was 100% and the inhibition of growth at 0.2 ppm (Pythium ultimum (PYU); .2 ppm, Table IVb, read-out: % Control at (ppm) indicated PYU) was 0%. It also gave an inhibition of growth at 0.4 ppm (Pythium ultimum (PYU); .4 ppm, Table IVb, read-out: % Control at (ppm) indicated PYU) of 0%, an inhibition of growth at 0.8 ppm (Pythium ultimum (PYU); .8 ppm, Table IVb, read-out: % Control at (ppm) indicated PYU) of 0% and an inhibition of growth at 1.5 ppm (Piricularia oryzae (PIR); 1.5 ppm, read-out: % Control at (ppm) indicated PIR) of 0%. For the same compound, the inhibition of growth at 6 ppm (Piricularia oryzae (PIR); 6 ppm, read-out: % Control at (ppm) indicated PIR) was 0%, the inhibition of growth at 25 ppm (Piricularia oryzae (PIR); 25 ppm, read-out: % Control at (ppm) indicated PIR) was 100% and the inhibition of growth at 0.2 ppm (Piricularia oryzae (PIR); .2 ppm, read-out: % Control at (ppm) indicated PIR) was 0%. For the same compound, the inhibition of growth at 0.4 ppm (Piricularia oryzae (PIR); .4 ppm, read-out: % Control at (ppm) indicated PIR) was 0%, the inhibition of growth at 0.8 ppm (Piricularia oryzae (PIR); .8 ppm, read-out: % Control at (ppm) indicated PIR) was 0% and the inhibition of growth at 25 ppm (Piricularia oryzae (PIR); read-out: % Control at 25 ppm PIR) was 100%. For the same compound, the inhibition of growth at 1.5 ppm (MON; 1.5 ppm) was 50%, the inhibition of growth at 6 ppm (MON; 6 ppm) was 100% and the inhibition of growth at 25 ppm (MON; 25 ppm) was 100%. The inhibition of growth at 0.2 ppm (MON; .2 ppm) was 0%, the inhibition of growth at 0.4 ppm (MON; .4 ppm) was 0% and the inhibition of growth at 0.8 ppm (MON; .8 ppm) was 0%. For the same compound, the MIC (Aspergillus niger (ANIG)) was < 0.8 µg/mL, the inhibition of growth at 1.5 ppm ([1]; 1.5 ppm, Table IVb, read-out: % Control at (ppm) indicated XAN) was 0% and the inhibition of growth at 3 ppm ([1]; 3 ppm, Table IVb, read-out: % Control at (ppm) indicated XAN) was 0%. It also gave an inhibition of growth at 6 ppm ([1]; 6 ppm, Table IVb, read-out: % Control at (ppm) indicated XAN) of 0%, an inhibition of growth at 25 ppm ([1]; Table IVa, read-out: % Control at 25 ppm XAN) of 0% and an inhibition of growth at 25 ppm [1, 6] of 0%. It also gave an inhibition of growth at 0.2 ppm ([1]; .2 ppm, Table IVb, read-out: % Control at (ppm) indicated XAN) of 0%, an inhibition of growth at 0.4 ppm ([1]; .4 ppm, Table IVb, read-out: % Control at (ppm) indicated XAN) of 0% and an inhibition of growth at 0.8 ppm ([1]; .8 ppm, Table IVb, read-out: % Control at (ppm) indicated XAN) of 0%. For the same compound, the inhibition of growth [1, 6] was 0%, the inhibition of growth at 1.5 ppm (Septoria nodorum (SEP); 1.5 ppm, Table IVb, read-out: % Control at (ppm) indicated SEP) was 50% and the inhibition of growth at 6 ppm (Septoria nodorum (SEP); 6 ppm, Table IVb, read-out: % Control at (ppm) indicated SEP) was 100%. It also gave an inhibition of growth at 25 ppm (Septoria nodorum (SEP); Table IVa, read-out: % Control at 25 ppm SEP) of 100%, an inhibition of growth at 25 ppm (Septoria nodorum (SEP); Table IVb, read-out: % Control at (ppm) indicated SEP) of 100% and an inhibition of growth at 0.2 ppm (Septoria nodorum (SEP); .2 ppm, Table IVb, read-out: % Control at (ppm) indicated SEP) of 0%. The inhibition of growth at 0.4 ppm (Septoria nodorum (SEP); .4 ppm, Table IVb, read-out: % Control at (ppm) indicated SEP) was 0%, the inhibition of growth at 0.8 ppm (Septoria nodorum (SEP); .8 ppm, Table IVb, read-out: % Control at (ppm) indicated SEP) was 0% and the inhibition of growth at 1.5 ppm ([2]; 1.5 ppm, Table IVb, read-out: % Control at (ppm) indicated PHY) was 0%. For the same compound, the inhibition of growth at 6 ppm ([2]; 6 ppm, Table IVb, read-out: % Control at (ppm) indicated PHY) was 0%, the inhibition of growth at 25 ppm ([2]; Table IVa, read-out: % Control at 25 ppm PHY) was 100% and the inhibition of growth at 25 ppm ([2]; Table IVb, read-out: % Control at (ppm) indicated PHY) was 100%. For the same compound, the inhibition of growth at 0.2 ppm ([2]; .2 ppm, Table IVb, read-out: % Control at (ppm) indicated PHY) was 0%, the inhibition of growth at 0.4 ppm ([2]; .4 ppm, Table IVb, read-out: % Control at (ppm) indicated PHY) was 0% and the inhibition of growth at 0.8 ppm ([2]; .8 ppm, Table IVb, read-out: % Control at (ppm) indicated PHY) was 0%. For the same compound, the inhibition of growth at 1.5 ppm (ALT; 1.5 ppm) was 0%, the inhibition of growth at 3 ppm (ALT; 3 ppm) was 50% and the inhibition of growth at 6 ppm (ALT; 6 ppm) was 75%. It also gave an inhibition of growth at 25 ppm (ALT; 25 ppm) of 100%, an inhibition of growth at 0.2 ppm (ALT; .2 ppm) of 0% and an inhibition of growth at 0.4 ppm (ALT; .4 ppm) of 0%. The inhibition of growth at 0.8 ppm (ALT; .8 ppm) was 0%, the inhibition of growth (ALT) was 100% and the inhibition of growth at 1.5 ppm (UST; 1.5 ppm) was 0%. The inhibition of growth at 3 ppm (UST; 3 ppm) was 0%, the inhibition of growth at 6 ppm (UST; 6 ppm) was 100% and the inhibition of growth at 25 ppm (UST; 25 ppm) was 100%. For the same compound, the inhibition of growth at 0.2 ppm (UST; .2 ppm) was 0%, the inhibition of growth at 0.4 ppm (UST; .4 ppm) was 0% and the inhibition of growth at 0.8 ppm (UST; .8 ppm) was 0%. It also gave an inhibition of growth (UST) of 100%, an inhibition of growth at 1.5 ppm (CER; 1.5 ppm) of 0% and an inhibition of growth at 6 ppm (CER; 6 ppm) of 50%. It also gave an inhibition of growth at 25 ppm (CER; 25 ppm) of 100%, an inhibition of growth at 0.2 ppm (CER; .2 ppm) of 0% and an inhibition of growth at 0.4 ppm (CER; .4 ppm) of 0%. It also gave an inhibition of growth at 0.8 ppm (CER; .8 ppm) of 0%, an MIC [3] of 100 µg/mL and an MIC [4] of 50 µg/mL. For the same compound, the inhibition of growth at 1.5 ppm (Botrytis cinerea (BOC); 1.5 ppm, Table IVb, read-out: % Control at (ppm) indicated BOC) was 0%, the inhibition of growth at 6 ppm (Botrytis cinerea (BOC); 6 ppm, Table IVb, read-out: % Control at (ppm) indicated BOC) was 0% and the inhibition of growth at 25 ppm (Botrytis cinerea (BOC); Table IVa, *=Phytotoxic, read-out: % Control at 25 ppm BOC) was 0%. For the same compound, the inhibition of growth at 25 ppm (Botrytis cinerea (BOC); Table IVb, read-out: % Control at (ppm) indicated BOC) was 90%, the inhibition of growth at 0.2 ppm (Botrytis cinerea (BOC); .2 ppm, Table IVb, read-out: % Control at (ppm) indicated BOC) was 0% and the inhibition of growth at 0.4 ppm (Botrytis cinerea (BOC); .4 ppm, Table IVb, read-out: % Control at (ppm) indicated BOC) was 0%. It also gave an inhibition of growth at 0.8 ppm (Botrytis cinerea (BOC); .8 ppm, Table IVb, read-out: % Control at (ppm) indicated BOC) of 0%, an MIC [5] of 50 µg/mL and an inhibition of growth at 1.5 ppm (Rhizoctonia solani (RHI); 1.5 ppm, Table IVb, read-out: % Control at (ppm) indicated RHI) of 0%. It also gave an inhibition of growth at 6 ppm (Rhizoctonia solani (RHI); 6 ppm, Table IVb, read-out: % Control at (ppm) indicated RHI) of 0%, an inhibition of growth at 25 ppm (Rhizoctonia solani (RHI); Table IVa, read-out: % Control at 25 ppm RHI) of 100% and an inhibition of growth at 25 ppm (Rhizoctonia solani (RHI); Table IVb, read-out: % Control at (ppm) indicated RHI) of 100%. The inhibition of growth at 0.2 ppm (Rhizoctonia solani (RHI); .2 ppm, Table IVb, read-out: % Control at (ppm) indicated RHI) was 0%, the inhibition of growth at 0.4 ppm (Rhizoctonia solani (RHI); .4 ppm, Table IVb, read-out: % Control at (ppm) indicated RHI) was 0% and the inhibition of growth at 0.8 ppm (Rhizoctonia solani (RHI); .8 ppm, Table IVb, read-out: % Control at (ppm) indicated RHI) was 0%.
